The record followed here is patent US12281119B2, “Imidazo[2,1-f][1,2,4]triazin-4-amine derivatives as TLR7 agonist” (BEIGENE, LTD., priority 2019, dated 2025).

One test addresses T1, human TLR 8 protein (Homo sapiens, UniProt Q9NR97).
T1 construct: expressed in transfected cells; host or cells: HEK293 (HEK-Blue hTLR8)
T1 sequence (Q9NR97 27-1041): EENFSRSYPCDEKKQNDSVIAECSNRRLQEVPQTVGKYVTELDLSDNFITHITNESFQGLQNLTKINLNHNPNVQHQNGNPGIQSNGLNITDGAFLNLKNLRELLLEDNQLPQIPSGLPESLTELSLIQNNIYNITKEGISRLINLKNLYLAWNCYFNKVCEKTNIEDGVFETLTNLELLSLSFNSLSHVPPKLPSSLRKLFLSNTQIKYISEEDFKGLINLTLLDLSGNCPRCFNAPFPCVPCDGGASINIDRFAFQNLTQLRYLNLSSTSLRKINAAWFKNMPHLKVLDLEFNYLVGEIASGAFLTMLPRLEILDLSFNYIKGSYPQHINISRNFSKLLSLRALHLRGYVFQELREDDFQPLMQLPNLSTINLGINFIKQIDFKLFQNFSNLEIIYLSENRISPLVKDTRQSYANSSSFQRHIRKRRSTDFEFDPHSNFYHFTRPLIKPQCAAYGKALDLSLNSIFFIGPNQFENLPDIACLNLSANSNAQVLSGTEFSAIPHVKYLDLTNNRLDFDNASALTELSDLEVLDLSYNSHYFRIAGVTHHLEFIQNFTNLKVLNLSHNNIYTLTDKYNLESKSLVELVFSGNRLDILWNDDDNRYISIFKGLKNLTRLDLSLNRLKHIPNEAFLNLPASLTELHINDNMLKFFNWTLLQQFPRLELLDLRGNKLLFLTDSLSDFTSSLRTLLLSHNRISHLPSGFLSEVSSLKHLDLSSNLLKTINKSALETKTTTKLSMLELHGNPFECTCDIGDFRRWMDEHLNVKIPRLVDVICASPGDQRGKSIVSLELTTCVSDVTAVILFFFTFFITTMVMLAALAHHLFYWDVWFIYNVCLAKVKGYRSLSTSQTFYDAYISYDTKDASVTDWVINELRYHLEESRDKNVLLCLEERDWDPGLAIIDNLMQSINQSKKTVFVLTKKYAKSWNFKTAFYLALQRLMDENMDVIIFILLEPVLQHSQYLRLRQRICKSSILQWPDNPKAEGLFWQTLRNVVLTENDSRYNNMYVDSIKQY
In words: TLR8 stimulation determined using HEK-Blue Detection. The test is classed as cell-based. Conditions: HEK-Blue hTLR8 cells, 16 hr, relative to Resiquimod or Motolimod maximum. From the text: TLR8 Stimulation Determined Using HEK-Blue Detection
This assay was designed for studying the stimulation of human TLR 8 protein in HEK-Blue hTLR8 tool cell line by monitoring the activation of NF-1B. HEK-Blue hTLR8 cells were obtained by co-transfection of the hTLR8 gene and an optimized secreted embryonic alkaline phosphatase (SEAP) reporter gene into HEK293 cells. The SEAP reporter gene was placed under the control of the IFN-β minimal promoter fused to five NF-κB and AP-1-binding sites. Stimulation with a TLR 8 ligand activates NF-κB and AP-1 which induce the expression of SEAP. Levels of SEAP can be easily determined with HEK-Blue Detection, a cell culture medium that allows for real-time detection of SEAP. HEK-Blue Detection contains all the nutrients necessary for cell growth and a specific SEAP color substrate. The hydrolysis of the substrate by SEAP produces a purple/blue color that can be measured with a spectrophotometer.
When growing to 50-80% confluency, HEK-Blue hTLR7/8 cells were plated into 96-well plate (costar 3599) at a density of 40000 cells/well. Then compounds were added with serial dilutions over 10 points with a 1 nM-10 uM final concentration range in 0.1% DMSO/HEK-Blue Detection. The plates were then incubated for 16 hr at 37° C. in 5% CO2. The optical density at 620-655 nm was read on BMG PHERAstar FSX instrument. The EC50 for each compound was determined by calculating the percentages of the maximum activation identified with Resiquimod or Motolimod.

The next test has as its target T2, human TLR7 (Homo sapiens, UniProt Q9NYK1).
T2 sequence (Q9NYK1 27-1049): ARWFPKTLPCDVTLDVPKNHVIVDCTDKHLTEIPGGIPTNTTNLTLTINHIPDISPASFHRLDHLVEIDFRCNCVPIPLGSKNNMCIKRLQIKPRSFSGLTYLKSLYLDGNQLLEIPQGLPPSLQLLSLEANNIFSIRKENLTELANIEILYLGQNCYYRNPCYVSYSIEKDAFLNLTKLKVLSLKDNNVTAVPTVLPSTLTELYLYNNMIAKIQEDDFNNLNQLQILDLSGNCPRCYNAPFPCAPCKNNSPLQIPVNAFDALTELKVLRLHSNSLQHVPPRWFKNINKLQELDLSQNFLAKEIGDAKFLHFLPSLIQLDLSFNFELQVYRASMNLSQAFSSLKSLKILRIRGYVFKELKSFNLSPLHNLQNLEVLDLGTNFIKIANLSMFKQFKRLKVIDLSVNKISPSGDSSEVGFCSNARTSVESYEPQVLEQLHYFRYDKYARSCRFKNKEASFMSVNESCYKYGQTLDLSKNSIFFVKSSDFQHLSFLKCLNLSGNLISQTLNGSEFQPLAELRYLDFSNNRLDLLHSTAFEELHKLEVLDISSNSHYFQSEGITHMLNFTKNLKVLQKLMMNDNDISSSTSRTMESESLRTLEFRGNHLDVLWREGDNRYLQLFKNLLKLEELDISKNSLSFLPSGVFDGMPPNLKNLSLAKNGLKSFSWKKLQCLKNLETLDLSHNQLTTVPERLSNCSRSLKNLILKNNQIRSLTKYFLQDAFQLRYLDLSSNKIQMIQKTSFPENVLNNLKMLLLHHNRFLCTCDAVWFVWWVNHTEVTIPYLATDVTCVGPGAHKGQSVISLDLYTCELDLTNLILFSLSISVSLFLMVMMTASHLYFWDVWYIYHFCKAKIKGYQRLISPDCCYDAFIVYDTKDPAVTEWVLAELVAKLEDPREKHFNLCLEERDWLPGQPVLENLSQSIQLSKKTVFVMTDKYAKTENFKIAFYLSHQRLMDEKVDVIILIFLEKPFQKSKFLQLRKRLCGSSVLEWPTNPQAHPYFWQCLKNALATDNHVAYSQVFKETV
In words: TLR7 stimulation determined using HEK-Blue Detection. Conditions: HEK-Blue hTLR7 cells, HEK-Blue Detection (A77-A124), 16 hr, relative to Resiquimod maximum. Also on record: expressed in transfected cells; host or cells: HEK293 (HEK-Blue hTLR7). It counts as cell-based. From the text: TLR7 Stimulation Determined Using HEK-Blue Detection
This assay was designed for studying the stimulation of human TLR7 protein in HELK-Blue hTLR7 tool cell line by monitoring the activation of NF-κB. HEK-Blue hTLR7 cells were obtained by co-transfection of the hTLR7 gene and an optimized secreted embryonic alkaline phosphatase (SLAP) reporter gene into HEK293 cells. The SLAP reporter gene was placed under the control of the IFN-β minimal promoter fused to five NF-κB and AP-1-binding sites. Stimulation with a TLR7 ligand activates NF-κB and AP-1 which induce the expression of SLAP. Levels of SLAP can be easily determined with HEK-Blue Detection, a cell culture medium that allows for real-time detection of SLAP. HLK-Blue Detection contains all the nutrients necessary for cell growth and a specific SLAP color substrate. The hydrolysis of the substrate by SLAP produces a purple/blue color that can be measured with a spectrophotometer.
When growing to 50-80%0 confluency, HLK-Blue hTLR7 cells were plated into 96-well plate (costar 3599) at a density of 40000 cells/well. Then compounds were added with serial dilutions over 10 points with a 0.04 nM-10 μM final concentration range in 0.1% DMSO/BLK-Blue Detection. The plates were then incubated for 16 hr at 37° C. in […] and vortex for 30s before measurement. The optical density at 620-655 nm was read on BMG PHLRAstar FSX instrument. The EC50 for each compound was determined by calculating the percentages of the maximum activation identified with Resiquimod.

For the molecule `CCCC(CCO)Oc1nc(N)c2ncc(Cc3cccc(OCCNC)c3)n2n1` (single isomer, unassigned) [Compound A104, (R or S)-3-((4-amino-7-(3-(2-(methylamino)ethoxy)benzyl)imidazo[2,1-f][1,2,4]triazin-2-yl)oxy)hexan-1-ol], the EC50 on human TLR 8 protein turned out to be 24 nM; on human TLR7, 10 nM.
The corresponding values for `CCCC(CCO)Oc1nc(N)c2ncc(Cc3ccc(OCCNC)c(F)c3)n2n1` (single isomer, unassigned) [Compound A105, (R or S)-3-((4-amino-7-(3-fluoro-4-(2-(methylamino)ethoxy)benzyl)imidazo[2,1-f][1,2,4]triazin-2-yl)oxy)hexan-1-ol] are 622 nM and 61 nM.
The corresponding values for `CCCC(CCO)Oc1nc(N)c2ncc(Cc3ccc(OCCNC)c(F)c3)n2n1` (single isomer, unassigned) [Compound A106, (S or R)-3-((4-amino-7-(3-fluoro-4-(2-(methylamino)ethoxy)benzyl)imidazo[2,1-f][1,2,4]triazin-2-yl)oxy)hexan-1-ol] are 12 nM and 1.6 nM.
Turning to `CCCC(CCO)Oc1nc(N)c2ncc(Cc3ccc(OCCNC)cc3C)n2n1` (single isomer, unassigned) [Compound A107, (R or S)-3-((4-amino-7-(2-methyl-4-(2-(methylamino)ethoxy)benzyl)imidazo[2,1-f][1,2,4]triazin-2-yl)oxy)hexan-1-ol], the EC50 was 16 nM on human TLR 8 protein and 1.3 nM on human TLR7.
The like results for `CCCC(CCO)Oc1nc(N)c2ncc(Cc3ccc(OCCNC)cc3Cl)n2n1` (single isomer, unassigned) [Compound A108, (R or S)-3-((4-amino-7-(2-chloro-4-(2-(methylamino)ethoxy)benzyl)imidazo[2,1-f][1,2,4]triazin-2-yl)oxy)hexan-1-ol] were, in that order, 21 nM and 0.8 nM.
The like results for `CCCC(CCO)Oc1nc(N)c2ncc(Cc3ccc(OC(C)CNC)nc3)n2n1` (single isomer, unassigned) [Compound A109, (3R or S)-3-((4-amino-7-((6-((1-(methylamino)propan-2-yl)oxy)pyridin-3-yl)methyl)imidazo [2,1-f][1,2,4]triazin-2-yl)oxy)hexan-1-ol] were, in that order, 47 nM and 3.4 nM.
Regarding `CCCC(CCO)Oc1nc(N)c2ncc(Cc3ccc(CCCNC)cc3)n2n1` (single isomer, unassigned) [Compound A110, (R or S)-3-((4-amino-7-(4-(3-(methylamino)propyl)benzyl)imidazo[2,1-f][1,2,4]triazin-2-yl)oxy)hexan-1-ol], the EC50 turned out to be 65 nM at human TLR 8 protein and 4 nM on human TLR7.
On to `CCCC(CCO)Oc1nc(N)c2ncc(Cc3ccc(OCCNC)c(F)c3F)n2n1` (single isomer, unassigned) [Compound A111, (R or S)-3-((4-amino-7-(2,3-difluoro-4-(2-(methylamino)ethoxy)benzyl)imidazo[2,1-f][1,2,4]triazin-2-yl)oxy)hexan-1-ol], for which the EC50 amounted to 47 nM at human TLR 8 protein and 1.9 nM on human TLR7.
The corresponding values for `CCCC(CCO)Oc1nc(N)c2ncc(Cc3cc(F)c(OCCNC)cc3F)n2n1` (single isomer, unassigned) [Compound A112, (R or S)-3-((4-amino-7-(2,5-difluoro-4-(2-(methylamino)ethoxy)benzyl)imidazo[2,1-f][1,2,4]triazin-2-yl)oxy)hexan-1-ol] are 9 nM and 0.93 nM.
Consider `CCCC(CCO)Oc1nc(N)c2ncc(Cc3cc(OCCNC)ccc3OC)n2n1` (single isomer, unassigned) [Compound A113, (R or S)-3-((4-amino-7-(2-methoxy-5-(2-(methylamino)ethoxy)benzyl)imidazo[2,1-f][1,2,4]triazin-2-yl)oxy)hexan-1-ol], for which the EC50 turned out to be 98 nM on human TLR 8 protein and 24 nM at human TLR7.
